From US6815183B1, “Plasmodium sp. chitinase” (The Board of Regents of the University of Texas System, priority 1999, dated 2004)
Like-named read-outs stand apart in the source and are kept apart here.

How the values were obtained:
[1] = test system: Endo Lys-C-treated rPgCHT1; experiment: Kinetics of Endo Lys-C-treated rPgCHT1-NT1 on 4-MU substrates (Lineweaver-Burk plot); conditions: pH 6.0
[2] = biological target: peak 2 of chitinase activity (PgCHT2) (Plasmodium gallinaceum, UniProt A0A1J1H1G1); type: biochemical
peak 2 of chitinase activity (PgCHT2), sequence (A0A1J1H1G1 entry or part of it): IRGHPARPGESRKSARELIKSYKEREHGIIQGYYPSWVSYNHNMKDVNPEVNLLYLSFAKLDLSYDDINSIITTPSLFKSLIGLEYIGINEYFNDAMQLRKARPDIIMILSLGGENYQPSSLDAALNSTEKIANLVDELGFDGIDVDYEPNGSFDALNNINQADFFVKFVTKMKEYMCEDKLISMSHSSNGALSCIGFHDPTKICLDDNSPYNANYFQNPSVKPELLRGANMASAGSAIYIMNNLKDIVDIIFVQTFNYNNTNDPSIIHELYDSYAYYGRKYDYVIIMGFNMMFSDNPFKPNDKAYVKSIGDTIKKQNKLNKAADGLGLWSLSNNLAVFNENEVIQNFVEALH

[3] = biological target: peak 1 of chitinase activity (native PgCHT1) (Plasmodium gallinaceum, UniProt Q9NJX9); type: biochemical
peak 1 of chitinase activity (native PgCHT1), sequence (Q9NJX9 entry or part of it): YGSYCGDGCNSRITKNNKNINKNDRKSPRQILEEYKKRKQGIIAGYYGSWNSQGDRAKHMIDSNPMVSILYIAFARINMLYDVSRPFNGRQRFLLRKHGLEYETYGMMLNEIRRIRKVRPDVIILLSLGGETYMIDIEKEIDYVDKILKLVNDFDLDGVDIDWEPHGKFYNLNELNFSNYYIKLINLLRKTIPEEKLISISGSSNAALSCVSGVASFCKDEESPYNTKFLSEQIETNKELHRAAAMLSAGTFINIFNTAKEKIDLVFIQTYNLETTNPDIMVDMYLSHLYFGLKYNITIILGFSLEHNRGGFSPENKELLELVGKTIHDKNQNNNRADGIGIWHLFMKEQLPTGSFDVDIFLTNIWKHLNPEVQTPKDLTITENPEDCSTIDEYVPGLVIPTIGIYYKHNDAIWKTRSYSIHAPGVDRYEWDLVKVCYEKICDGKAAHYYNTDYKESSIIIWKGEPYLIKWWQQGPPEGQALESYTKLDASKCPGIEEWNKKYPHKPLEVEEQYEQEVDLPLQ

rPgCHT1 = rPgCHT1 (Plasmodium gallinaceum, UniProt Q9NJX9); experiment: biochemical
rPgCHT1, sequence (Q9NJX9 entry or part of it): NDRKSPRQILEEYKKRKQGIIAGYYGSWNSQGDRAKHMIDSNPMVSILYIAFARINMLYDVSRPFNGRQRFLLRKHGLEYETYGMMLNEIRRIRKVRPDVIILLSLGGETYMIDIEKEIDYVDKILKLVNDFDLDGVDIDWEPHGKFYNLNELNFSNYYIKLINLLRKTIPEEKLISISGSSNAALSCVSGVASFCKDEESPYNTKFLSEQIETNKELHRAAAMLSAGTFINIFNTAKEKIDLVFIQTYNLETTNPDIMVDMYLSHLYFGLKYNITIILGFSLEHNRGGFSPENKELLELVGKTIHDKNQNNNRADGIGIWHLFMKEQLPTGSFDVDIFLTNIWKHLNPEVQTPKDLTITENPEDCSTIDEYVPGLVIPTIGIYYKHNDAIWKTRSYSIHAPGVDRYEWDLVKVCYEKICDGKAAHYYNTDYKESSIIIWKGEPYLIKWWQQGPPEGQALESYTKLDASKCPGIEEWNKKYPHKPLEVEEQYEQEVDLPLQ

Row | IC50 ([2]; read-out: IC50 of PgCHT2) [µM] | IC50 ([2]; read-out: IC50 value for peak 2) [µM] | IC50 [3] [µM] | IC50 (rPgCHT1) [µM] | SMILES | Km [1] [µM]
1 | – | – | – | – | CC(=O)N[C@H]1[C@H](Oc2ccc3c(C)cc(=O)oc3c2)O[C@H](CO)[C@@H](O[C@@H]2O[C@H](CO)[C@@H](O[C@@H]3O[C@H](CO)[C@@H](O)[C@H](O)[C@H]3NC(C)=O)[C@H](O)[C@H]2NC(C)=O)[C@@H]1O [4-MU GlcNAc3, 4-methylumbelliferyl-N,N′,N″-β-D-triacetylchitotrioside] | 140
2 | 0.3 | 0.3 | 7 | 12 | CC(=O)N[C@H]1[C@H](O[C@H]2[C@@H](O)[C@@H](NC(C)=O)[C@H](O[C@H]3[C@H](O)[C@H]4N=C(N(C)C)O[C@H]4[C@@H]3CO)O[C@@H]2CO)O[C@H](CO)[C@@H](O)[C@H]1O [allosamidin] | –
